Measurements as given in US20210255193A1, “LYSINE REACTIVE PROBES AND USES THEREOF” (The Scripps Research Institute, priority 2017, published 2021).

Legend:
Assay in all cases: competitive isoTOP-ABPP
Assay type in all cases: binding
[1] = biological target: T1, EEF1G Elongation factor 1-gamma (Homo sapiens, UniProt P26641); details: for isoTOP-ABPP reactivity ratio at lysine P26641_K227 / isoTOP-ABPP ratio (R) at liganded lysine P26641_K227: 50 uM, in vitro; for isoTOP-ABPP reactivity ratio at lysine P26641_K227: 231 sol; for isoTOP-ABPP ratio (R) at liganded lysine P26641_K227: sol, 231; for isoTOP-ABPP ratio, lysine P26641_K227: 50 uM_231_sol_in vitro
T1 construct: isoTOP-ABPP experiments performed in cell lysates (in vitro); endogenous in cells; host or cells: soluble proteome of human cancer cell lines (MDA-MB-231; Ramos and Jurkat also prepared)
Method in brief: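 Lysate + fragment (50 μM activated ester / 100 μM guanidinylating agent) or DMSO → 0.1 mM STP-alkyne, 1 h, RT → CuAAC to TEV tags (compound light, DMSO heavy) → LC-MS. R = heavy/light MS1 area; liganded lysine if R≥4.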

HK1 Hexokinase-1 = biological target: T2, HK1 Hexokinase-1 (Homo sapiens, UniProt P19367); parameters: key to isoTOP-ABPP reactivity ratio at lysine P19367_K510: R = MS1 peak area ratio, DMSO (heavy) / compound-treated (light); details: for isoTOP-ABPP reactivity ratio at lysine P19367_K510 / isoTOP-ABPP ratio (R) at liganded lysine P19367_K510: 50 uM, in vitro; for isoTOP-ABPP reactivity ratio at lysine P19367_K510: 231 sol; for isoTOP-ABPP ratio (R) at liganded lysine P19367_K510: sol, 231; for isoTOP-ABPP ratio, lysine P19367_K510: 50 uM_231_sol_in vitro
T2 construct: isoTOP-ABPP experiments performed in cell lysates (in vitro); endogenous in cells; host or cells: soluble proteome of human cancer cell lines (MDA-MB-231; Ramos and Jurkat also prepared)
T2 sequence (P19367 1-917): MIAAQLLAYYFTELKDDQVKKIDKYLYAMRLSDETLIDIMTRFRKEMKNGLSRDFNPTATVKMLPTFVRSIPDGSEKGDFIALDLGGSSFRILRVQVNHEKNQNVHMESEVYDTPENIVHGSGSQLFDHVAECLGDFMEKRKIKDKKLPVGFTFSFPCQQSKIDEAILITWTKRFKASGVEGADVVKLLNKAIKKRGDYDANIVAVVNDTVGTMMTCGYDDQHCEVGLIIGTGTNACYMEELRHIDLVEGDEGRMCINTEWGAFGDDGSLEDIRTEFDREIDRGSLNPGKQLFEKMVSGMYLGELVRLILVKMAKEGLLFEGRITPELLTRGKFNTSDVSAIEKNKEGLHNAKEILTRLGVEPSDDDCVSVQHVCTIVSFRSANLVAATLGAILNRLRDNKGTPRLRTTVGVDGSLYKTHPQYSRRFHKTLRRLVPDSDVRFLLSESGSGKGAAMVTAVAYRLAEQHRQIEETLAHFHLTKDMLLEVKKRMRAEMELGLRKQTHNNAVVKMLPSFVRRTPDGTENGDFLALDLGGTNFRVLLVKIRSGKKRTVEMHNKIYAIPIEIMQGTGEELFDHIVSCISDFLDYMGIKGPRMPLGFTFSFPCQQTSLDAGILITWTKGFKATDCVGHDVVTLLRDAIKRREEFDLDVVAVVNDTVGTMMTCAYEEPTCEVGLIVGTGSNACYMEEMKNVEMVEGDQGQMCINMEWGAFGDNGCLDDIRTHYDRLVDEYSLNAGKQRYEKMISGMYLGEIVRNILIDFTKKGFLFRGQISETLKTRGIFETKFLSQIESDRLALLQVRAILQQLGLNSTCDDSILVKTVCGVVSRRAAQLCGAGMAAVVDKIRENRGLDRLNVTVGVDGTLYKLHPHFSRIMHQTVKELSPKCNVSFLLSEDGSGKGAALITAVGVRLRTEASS
Protocol: (§1) In vitro covalent fragment treatment for isoTOP-ABPP. All compounds were made up as solutions in DMSO (100×) and were used at a final concentration of 50 μM for activated esters and 100 μM for guanidinylating agents. For each profiling sample, 0.5 ml of lysate was treated with 5 μl of the 100× compound stock solution or 5 μl of DMSO. Samples were treated with activated esters for
(§2) STP-alkyne labeling and click chemistry. For concentration-dependent reactivity measurements by isoTOP-ABPP, 0.5 ml proteome aliquots were treated at ambient temperature with 1 mM STP-alkyne 1 (5 μl of 100 mM stock in DMSO) and 0.1 mM STP alkyne 1 (5 μl of 10 mM stock in DMSO), respectively. For competitive isoTOP-ABPP, after in vitro fragment treatment (detailed above), the samples were labeled for 1 h at ambient temperature with 0.1 mM STP-alkyne 1 (5 μl of 10 mM stock in DMSO). Samples were conjugated by copper-mediated azide-alkyne cycloaddition (CuAAC) to either the light (1 mM STP-alkyne or fragment treated) or heavy (0.1 mM STP-alkyne or DMSO treated) TEV tags (10 μl of 5 mM stocks in DMSO, final concentration=100 μM) using tris(2-carboxyethyl)phosphine hydrochloride
(§3) R value calculation and processing. The ratios of light and heavy MS1 peaks for each unique peptide were quantified with a CIMAGE software using default parameters (3 MS1 acquisitions per peak and signal to noise threshold set to 2.5). For reactivity measurements by isoTOP-ABPP, the R value was calculated from the ratio of MS1 peak areas, comparing the 1 mM STP alkyne sample (light TEV tag) with the 0.1 mM STP alkyne sample (heavy TEV tag). For competitive isoTOP-ABPP, the R value was calculated from the ratio of MS1 peak areas, comparing the DMSO treated sample (heavy TEV tag) with the compound treated sample (light TEV tag). […] Ratios for unique peptide entries are calculated for each experiment; overlapping peptides with the same modified lysine (for example, different charge states, MudPIT chromatographic steps or tryptic termini) are grouped together and the median ratio is reported as the final ratio (R). The peptide ratios reported by CIMAGE were further filtered to ensure the removal or correction of low-quality ratios in each individual data set. The quality filters applied were the following: removal of half tryptic peptides; for ratios with high standard deviations from the median (90% of the median or above) the lowest ratio was taken instead of the median; removal of peptides with R=20 and only a single MS2 event triggered during the elution of the parent ion; manual annotation of all the peptides with ratios of 20, removing any peptides with low quality elution profiles that remained after the previous curation steps (only done for competitive isoTOP-ABPP).
(§4) Cross-data processing for fragment screening. For compound treated samples, biological replicates of the same condition were averaged, if the standard deviation was below 60% of the mean; otherwise, for lysines with at least one R value <4 for a particular compound, the lowest value of the ratio set was taken. For lysines, where all R values for a particular compound were ≥4, the average was reported. For peptides containing several possible modified lysines, the lysine with the highest number of quantification events was used for analysis and the remaining, redundant peptides were reported as alternative modification sites. Peptides included in the aggregate dataset (those used for further bioinformatics and statistical analyses) were required to have been quantified in 2 experiments for competitive isoTOP-ABPP. Lysines were categorized as liganded, if they had at least one ratio R≥4 (hit fragments). For liganded lysines with R=20 for all liganding events, lysines were required to have been quantified with R=20 in two separate experiments and were further required to have been quantified with R<20 in one additional experiment.

[2] = biological target: T3, SRP54 Signal recognition particle 54 kDa protein (Homo sapiens, UniProt P61011); parameters: key to isoTOP-ABPP reactivity ratio at lysine P61011_K81: R = MS1 peak area ratio, DMSO (heavy) / compound-treated (light); capped at 20; details: for isoTOP-ABPP reactivity ratio at lysine P61011_K81 / isoTOP-ABPP ratio (R) at liganded lysine P61011_K81: 50 uM, in vitro; for isoTOP-ABPP reactivity ratio at lysine P61011_K81: 231 sol; for isoTOP-ABPP ratio (R) at liganded lysine P61011_K81: sol, 231; for isoTOP-ABPP ratio, lysine P61011_K81: 50 uM_231_sol_in vitro
T3 construct: isoTOP-ABPP experiments performed in cell lysates (in vitro); endogenous in cells; host or cells: soluble proteome of human cancer cell lines (MDA-MB-231, Ramos, Jurkat)
Protocol: as §1, §2, §3, §4

T3 sequence (P61011 whole entry): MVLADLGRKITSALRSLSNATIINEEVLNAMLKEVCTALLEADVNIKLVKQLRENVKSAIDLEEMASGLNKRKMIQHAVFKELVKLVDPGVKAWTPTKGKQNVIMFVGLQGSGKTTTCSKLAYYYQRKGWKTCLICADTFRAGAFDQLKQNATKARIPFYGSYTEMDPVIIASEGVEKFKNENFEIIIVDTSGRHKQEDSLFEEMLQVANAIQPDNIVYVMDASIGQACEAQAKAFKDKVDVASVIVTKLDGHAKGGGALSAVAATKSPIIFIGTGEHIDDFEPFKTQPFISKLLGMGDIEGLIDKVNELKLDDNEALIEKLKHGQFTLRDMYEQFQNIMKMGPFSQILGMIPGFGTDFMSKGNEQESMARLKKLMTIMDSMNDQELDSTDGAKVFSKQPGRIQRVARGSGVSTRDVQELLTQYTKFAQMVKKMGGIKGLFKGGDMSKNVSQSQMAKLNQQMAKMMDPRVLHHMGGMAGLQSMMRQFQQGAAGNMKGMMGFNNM
T1 sequence (P26641 whole entry): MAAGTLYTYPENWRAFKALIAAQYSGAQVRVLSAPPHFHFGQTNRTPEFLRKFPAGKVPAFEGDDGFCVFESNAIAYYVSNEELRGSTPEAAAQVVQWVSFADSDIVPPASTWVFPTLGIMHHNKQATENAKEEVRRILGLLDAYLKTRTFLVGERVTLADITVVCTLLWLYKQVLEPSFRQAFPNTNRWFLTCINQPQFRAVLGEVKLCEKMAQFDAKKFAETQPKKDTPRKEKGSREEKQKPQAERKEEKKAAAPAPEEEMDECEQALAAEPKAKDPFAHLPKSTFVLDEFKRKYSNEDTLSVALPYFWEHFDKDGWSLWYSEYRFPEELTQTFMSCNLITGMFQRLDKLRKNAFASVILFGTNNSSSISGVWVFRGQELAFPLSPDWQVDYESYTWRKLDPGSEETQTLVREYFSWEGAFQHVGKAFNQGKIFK

SMILES | isoTOP-ABPP reactivity ratio at lysine P26641_K227 [1] | isoTOP-ABPP reactivity ratio at lysine P19367_K510 (HK1 Hexokinase-1) | isoTOP-ABPP reactivity ratio at lysine P61011_K81 [2] | isoTOP-ABPP ratio, lysine P26641_K227 [1] | isoTOP-ABPP ratio, lysine P19367_K510 (HK1 Hexokinase-1) | isoTOP-ABPP ratio, lysine P61011_K81 [2] | other results
CCn1cc(C(=O)Oc2c(F)c(F)c(F)c(F)c2F)c(=O)c2ccc(C)nc21 [fragment 28, Pentafluorophenyl 1-ethyl-7-methyl-4-oxo-1,4-dihydro-1,8-naphthyridine-3-carboxylate] | 15.0 | 0.9 | 0.8 | – | – | – | –
O=C(CCc1cn(-c2ccccc2)nc1-c1ccccc1)Oc1ccc([N+](=O)[O-])cc1[N+](=O)[O-] [fragment 29, 2,4-Dinitrophenyl 3-(1,3-diphenyl-1H-pyrazol-4-yl)propanoate] | 0.7 | 10.8 | 1.1 | – | – | – | –
O=C(Oc1ccc([N+](=O)[O-])cc1[N+](=O)[O-])C(c1ccccc1)c1ccccc1 [fragment 30, 2,4-Dinitrophenyl 2,2-diphenylacetate] | 0.9 | 1.0 | 20.0 | – | – | – | –
O=C(Oc1ccc([N+](=O)[O-])cc1[N+](=O)[O-])c1cc(C(F)(F)F)cc(C(F)(F)F)c1 [fragment 31, 2,4-Dinitrophenyl 3,5-bis(trifluoromethyl)benzoate] | 2.2 | 1.1 | 0.9 | – | – | – | –
COc1cc(CCC(=O)Oc2ccc([N+](=O)[O-])cc2[N+](=O)[O-])cc(OC)c1OC [fragment 33, 2,4-Dinitrophenyl 3-(3,4,5-trimethoxyphenyl)propanoate] | 0.7 | 20.0 | 1.3 | – | – | – | –
CC(C)(C)OC(=O)NCCCC(=O)Oc1ccc([N+](=O)[O-])cc1[N+](=O)[O-] [fragment 41, 2,4-Dinitrophenyl 4-((tert-butoxycarbonyl)amino)butanoate] | – | – | – | – | – | – | isoTOP-ABPP ratio (R) at liganded lysine P26641_K227 [1]: 0.8; isoTOP-ABPP ratio (R) at liganded lysine P19367_K510 (HK1 Hexokinase-1): 12.6; isoTOP-ABPP ratio (R) at liganded lysine P61011_K81 [2]: 1.0
O=C(Oc1ccc([N+](=O)[O-])cc1[N+](=O)[O-])C(c1ccccc1)(c1ccccc1)c1ccccc1 [fragment 42, 2,4-Dinitrophenyl 2,2,2-triphenylacetate] | – | – | – | – | – | – | isoTOP-ABPP ratio (R) at liganded lysine P26641_K227 [1]: 0.7; isoTOP-ABPP ratio (R) at liganded lysine P19367_K510 (HK1 Hexokinase-1): 0.8; isoTOP-ABPP ratio (R) at liganded lysine P61011_K81 [2]: 0.9
CC(=O)Oc1ccc([N+](=O)[O-])cc1[N+](=O)[O-] [fragment 43, 2,4-Dinitrophenyl acetate] | – | – | – | – | – | – | isoTOP-ABPP ratio (R) at liganded lysine P26641_K227 [1]: 2.3; isoTOP-ABPP ratio (R) at liganded lysine P19367_K510 (HK1 Hexokinase-1): 20.0; isoTOP-ABPP ratio (R) at liganded lysine P61011_K81 [2]: 20.0
N#Cc1ccc(C(=O)Oc2ccc([N+](=O)[O-])cc2[N+](=O)[O-])cc1 [fragment 44, 2,4-Dinitrophenyl 4-cyanobenzoate] | – | – | – | 0.8 | 1.2 | 1.0 | –
O=C(CCc1ccc2c(c1)OCO2)Oc1ccc([N+](=O)[O-])cc1[N+](=O)[O-] [fragment 45, 2,4-Dinitrophenyl 3-(benzo[d][1,3]dioxol-5-yl)propanoate] | – | – | – | 0.6 | 5.3 | 1.0 | –
O=C(ON1C(=O)CCC1=O)c1cc(C(F)(F)F)cc(C(F)(F)F)c1 [fragment 46, 3,5-Bis(trifluoromethyl)benzoic acid NHS ester] | – | – | – | 0.6 | 1.0 | 0.9 | –
NC(=O)c1cc(C(F)(F)F)cc(C(F)(F)F)c1 [fragment 51, reference compound] | – | – | – | 0.9 | 1.0 | 0.7 | –
